10 molecules from PubChem BioAssay (NCI) can be followed below.

Some test systems named below: A549 NSCLC; BT-549 breast; DU-145 prostate; HCT-15 colon; M14 melanoma; NCI-H23 lung; OVCAR-8 ovarian; SF-268 CNS; SF-539 CNS; SK-OV-3 ovarian.
Holding throughout (assay): growth of human tumour cells (NCI), 48 h

Molecules are shown by their SMILES. “And” between values parts separate entries of the source, which are not always exact repeats. Equal entries are not always repeated.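 Test compounds were applied to cells in 96-well plates for 48 hours at 5 doses. Here, GI50 denotes the concentration required for 50% inhibition of growth. TGI denotes the concentration required for complete inhibition of growth.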

Regarding `COc1ccc(-c2ccc(C3CC(c4ccccc4)=NN3)o2)c([N+](=O)[O-])c1` (stereo unspecified), the GI50 in the test on A549 NSCLC is 47.1 µM; in the test on BT-549 breast, 47.4 µM; in the test with DU-145 prostate, 82.6 µM; in the test with HCT-15 colon, 37.4 µM; in the test with M14 melanoma it was 51.9 µM; with NCI-H23 lung, 39.1 µM. Besides, the GI50 is 51.2 µM with OVCAR-8 ovarian, 37.8 µM in the test on SF-268 CNS, 64.7 µM in the test with SF-539 CNS and 42.5 µM with SK-OV-3 ovarian. The TGI in the test on A549 NSCLC, in the test with BT-549 breast, in the test on DU-145 prostate, in the test with HCT-15 colon, in the test with M14 melanoma and in the test on NCI-H23 lung was greater than 100 µM in each case. The TGI in the test with OVCAR-8 ovarian, with SF-268 CNS, with SF-539 CNS and in the test with SK-OV-3 ovarian was greater than 100 µM in each case.
Turning to `N=C1CCCC1C(=S)SCCC(N)=O` (stereo unspecified), the TGI with A549 NSCLC, in the test with BT-549 breast, in the test on DU-145 prostate, in the test on HCT-15 colon, with M14 melanoma and with NCI-H23 lung was greater than 100 µM throughout. In addition, the TGI in the test on OVCAR-8 ovarian, with SF-268 CNS, in the test on SF-539 CNS and in the test on SK-OV-3 ovarian was greater than 100 µM each time.
Take `O=C1c2cccc3cccc(c23)C(=O)N1CCCCCN1CCN(CCN=c2cc3n(-c4ccc(Cl)cc4)c4ccccc4nc-3cc2Nc2ccc(Cl)cc2)CC1`: the GI50 was 25.9 µM in the test with A549 NSCLC; 22.2 µM with BT-549 breast; 38.3 µM in the test on DU-145 prostate; 9.28 µM in the test with HCT-15 colon; 7.53 µM in the test with M14 melanoma; 8.52 µM in the test with NCI-H23 lung. The GI50 in the test with OVCAR-8 ovarian is 12 µM; in the test with SF-268 CNS, 23.1 µM; with SF-539 CNS it was 12.1 µM; with SK-OV-3 ovarian, greater than 50 µM. Further, the TGI with A549 NSCLC was greater than 50 µM; in the test on BT-549 breast, greater than 50 µM; in the test on DU-145 prostate, greater than 50 µM; with HCT-15 colon it was 37.5 µM; with M14 melanoma, 16.5 µM; in the test with NCI-H23 lung, 22.3 µM. Moreover, the TGI in the test on OVCAR-8 ovarian is greater than 50 µM; in the test on SF-268 CNS it was greater than 50 µM; in the test on SF-539 CNS, 31 µM; in the test on SK-OV-3 ovarian it was greater than 50 µM.
For `COc1cc(/C=N/NC(=O)c2cnn3c2NC(c2ccccc2)C3)ccc1OC1CCCC1` (stereo unspecified), the GI50 with A549 NSCLC was 0.731 µM; with BT-549 breast, 1.46 µM; with DU-145 prostate it was 1.06 µM; in the test on HCT-15 colon, 0.5 µM; with M14 melanoma it was 0.646 µM; with NCI-H23 lung, 1.44 µM. The GI50 was 1.57 µM in the test with OVCAR-8 ovarian, 1.88 µM in the test on SF-268 CNS, 0.537 µM with SF-539 CNS and 1.57 µM in the test on SK-OV-3 ovarian. Moreover, the TGI in the test on A549 NSCLC came to 3.86 µM; in the test on BT-549 breast, 5.74 µM; in the test on DU-145 prostate it was 7.03 µM; with HCT-15 colon, 10.8 µM; in the test on M14 melanoma it was 5.19 µM; in the test with NCI-H23 lung, 8.85 µM. The TGI with OVCAR-8 ovarian was 7.61 µM; with SF-268 CNS it was 13.1 µM; in the test with SF-539 CNS, 1.99 µM; in the test with SK-OV-3 ovarian it was 8.49 µM.
For the molecule `Cc1nc2c(Br)cc(Br)cc2c(=O)n1-c1ccccc1NC1OC(CO)C(O)C(O)C1O` (stereo unspecified), the GI50 with A549 NSCLC is 27.8 µM and > 100 µM. The TGI with A549 NSCLC, in the test with BT-549 breast, with DU-145 prostate, with HCT-15 colon, with M14 melanoma and in the test with NCI-H23 lung was greater than 100 µM throughout. Besides, the TGI in the test on OVCAR-8 ovarian, in the test on SF-268 CNS, with SF-539 CNS and with SK-OV-3 ovarian was greater than 100 µM throughout.
For `Cn1c(I)c(C#C[Si](C)(C)C)c(=O)n(C(=O)c2ccccc2)c1=O`, the GI50 is 5.63 µM in the test on A549 NSCLC; 12.2 µM in the test with BT-549 breast; 1.95 µM in the test with DU-145 prostate; 2.45 µM with HCT-15 colon; 1.99 µM in the test on M14 melanoma; 8.28 µM in the test with NCI-H23 lung. Further, the GI50 is 12.4 µM with OVCAR-8 ovarian, 3.22 µM in the test with SF-268 CNS, 5.3 µM in the test on SF-539 CNS and 0.529 µM in the test with SK-OV-3 ovarian. The TGI was 24.8 µM in the test on A549 NSCLC; 25.6 µM with BT-549 breast; 3.78 µM in the test on DU-145 prostate; 7.3 µM in the test with HCT-15 colon; 4.16 µM in the test with M14 melanoma; 27.8 µM in the test with NCI-H23 lung. In addition, the TGI with OVCAR-8 ovarian was 26.1 µM; with SF-268 CNS, 10.2 µM; with SF-539 CNS it was 12.1 µM; with SK-OV-3 ovarian it was 21.7 µM.
In the case of `CCOC(=O)c1cc(-c2ccc(OC)cc2)c([N+](=O)[O-])[nH]1`, the TGI in the test on A549 NSCLC, in the test with BT-549 breast, in the test with DU-145 prostate, with HCT-15 colon, with M14 melanoma and with NCI-H23 lung was greater than 10 µM in each case. In addition, the TGI in the test with OVCAR-8 ovarian, in the test on SF-268 CNS, in the test on SF-539 CNS and in the test on SK-OV-3 ovarian was greater than 10 µM each time.
On to `NCCO/C=C/C(N)C(=O)O` (stereo unspecified), for which the TGI in the test on A549 NSCLC, with BT-549 breast, in the test on DU-145 prostate, with HCT-15 colon, with M14 melanoma and in the test on NCI-H23 lung was greater than 100 µM each time. The TGI with OVCAR-8 ovarian, with SF-268 CNS, with SF-539 CNS and in the test on SK-OV-3 ovarian was greater than 100 µM throughout.
For `N#Cc1nc(CCc2nc(C#N)c(N)o2)oc1N`, the TGI in the test on A549 NSCLC, in the test on BT-549 breast, in the test on DU-145 prostate, in the test with HCT-15 colon, in the test on M14 melanoma and with NCI-H23 lung was greater than 10 µM each time. Besides, the TGI with OVCAR-8 ovarian, in the test on SF-268 CNS, with SF-539 CNS and in the test with SK-OV-3 ovarian was greater than 10 µM each time.
On to `C=C(C)C1CC(=O)C(C)=C(O)C1` (stereo unspecified), for which the TGI in the test on A549 NSCLC, in the test on BT-549 breast, in the test on DU-145 prostate, in the test on HCT-15 colon, in the test on M14 melanoma and with NCI-H23 lung was greater than 100 µM in each case. Moreover, the TGI with OVCAR-8 ovarian, in the test on SF-268 CNS, with SF-539 CNS and in the test on SK-OV-3 ovarian was greater than 100 µM throughout.
